One may read the pIC50 as the negative decadic logarithm of the IC50, by convention in mol/L.

We go through 2 compounds from US9181258B2, “Substituted 3,4-dihydropyrrolo[1,2-a]pyrazin-1(2H)-ones as protein kinase inhibitors” (NERVIANO MEDICAL SCIENCES S.R.L., priority 2011, dated 2015).

The target of one assay is human PIM2 (Homo sapiens (Human), UniProt Q9P1W9). Description: PIM2 kinase inhibition assay: Dowex technique. Format: biochemical. The settings on record: ATP 4 μM, Aktide 5 μM, enzyme 1.5 nM; read-out: PIM-2 IC50. An outline of the steps: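 Radiometric Dowex read-out, run as for PIM1, with 50 mM HEPES pH 7.5, 1 mM MgCl2, 1 mM DTT, 3 μM Na3VO4 and 0.2 mg/mL BSA. Final conditions: 5 μM Aktide substrate, 4 μM ATP spiked with 1 nM 33P-γ-ATP, 1.5 nM full-length human enzyme.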
Chain of human PIM2 (Q9P1W9 whole entry): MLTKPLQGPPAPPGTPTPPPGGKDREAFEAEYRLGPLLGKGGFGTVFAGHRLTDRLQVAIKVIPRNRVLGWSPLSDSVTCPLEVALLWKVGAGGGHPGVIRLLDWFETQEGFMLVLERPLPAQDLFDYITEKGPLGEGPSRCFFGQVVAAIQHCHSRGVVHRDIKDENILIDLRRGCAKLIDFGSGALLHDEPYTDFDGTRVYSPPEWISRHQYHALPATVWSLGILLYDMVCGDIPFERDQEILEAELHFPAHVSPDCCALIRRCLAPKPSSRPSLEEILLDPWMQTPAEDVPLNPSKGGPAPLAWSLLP

The target in the next assay is human PIM1 (Homo sapiens (Human), UniProt P11309). Description: Biochemical assay for inhibitors of PIM1 kinase activity (trans-phosphorylation, Dowex technique). Particulars: ATP 200 μM, Aktide 25 μM, enzyme 1 nM; read-out: PIM-1 IC50. An outline of the steps: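 Full-length human PIM1 (1 nM) phosphorylates Aktide (25 μM) with 200 μM ATP plus 6 nM ^33P-γ-ATP in HEPES 50 mM pH 7.5, 10 mM MgCl2, 1 mM DTT, 3 μM NaVO3, 0.2 mg/mL BSA. Unreacted ATP captured on Dowex resin, supernatant β-counted; IC50 from ten-point 1:3 dilution sigmoidal fit.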
Chain of human PIM1 (P11309 whole entry): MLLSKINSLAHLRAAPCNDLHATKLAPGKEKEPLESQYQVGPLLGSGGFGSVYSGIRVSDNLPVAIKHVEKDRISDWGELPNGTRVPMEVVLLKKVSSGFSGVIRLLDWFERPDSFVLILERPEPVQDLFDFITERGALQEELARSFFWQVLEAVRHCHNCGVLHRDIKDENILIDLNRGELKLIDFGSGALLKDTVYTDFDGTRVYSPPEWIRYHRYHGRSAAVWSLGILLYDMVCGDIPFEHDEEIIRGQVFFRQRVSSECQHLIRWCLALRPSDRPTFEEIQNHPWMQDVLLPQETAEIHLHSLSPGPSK

The next assay relates to BaF3-PIM1 cells. Description: In vitro cell proliferation assay (CellTiter-Glo), BaF3-PIM1. Format: cell-based. The settings on record: 72 hours.
A further assay has as its system MV-4-11 cells. Description: In vitro cell proliferation assay (CellTiter-Glo), MV-4-11. It counts as cell-based. The settings on record: Homo sapiens, MV4-11, 72 hours.

pIC50: −log10 of the molar value. Structures can show the parent of a compound that is named as a salt.

Regarding `CN1CCN(Cc2ccc(-c3c(-c4cccc(OC(F)(F)F)c4)cc4n3[C@@H](CCN)CNC4=O)cc2)CC1` [Compound 100, (4S)-4-(2-aminoethyl)-6-{4-[(4-methylpiperazin-1-yl)methyl]phenyl}-7-[3-(trifluoromethoxy)phenyl]-3,4-dihydropyrrolo[1,2-a]pyrazin-1(2H)-one hydrochloride], the pIC50 is 8.70 at human PIM2, 9.00 at human PIM1, 5.51 in the assay on BaF3-PIM1 cells and 6.21 with MV-4-11 cells.
The corresponding values for `NCCC[C@H]1CNC(=O)c2cc(-c3cccc(OC(F)(F)F)c3)c(-c3ccccc3)n21` [Compound 102, (4S)-4-(3-aminopropyl)-6-phenyl-7-[3-(trifluoromethoxy)phenyl]-3,4-dihydropyrrolo[1,2-a]pyrazin-1(2H)-one hydrochloride] are 6.81, 7.72, 6.08 and 5.79.
